Laboratory results published in patent US9283222B2 (priority 2006, dated 2016).

Biological target: Recombinant Human Poly(ADP-Ribose) Polymerase (PARP), PARP-1 (Homo sapiens (Human), UniProt P09874)
Details: read-out: PARP-1 (Ki)

Recombinant Human Poly(ADP-Ribose) Polymerase (PARP), PARP-1, sequence (P09874 whole entry): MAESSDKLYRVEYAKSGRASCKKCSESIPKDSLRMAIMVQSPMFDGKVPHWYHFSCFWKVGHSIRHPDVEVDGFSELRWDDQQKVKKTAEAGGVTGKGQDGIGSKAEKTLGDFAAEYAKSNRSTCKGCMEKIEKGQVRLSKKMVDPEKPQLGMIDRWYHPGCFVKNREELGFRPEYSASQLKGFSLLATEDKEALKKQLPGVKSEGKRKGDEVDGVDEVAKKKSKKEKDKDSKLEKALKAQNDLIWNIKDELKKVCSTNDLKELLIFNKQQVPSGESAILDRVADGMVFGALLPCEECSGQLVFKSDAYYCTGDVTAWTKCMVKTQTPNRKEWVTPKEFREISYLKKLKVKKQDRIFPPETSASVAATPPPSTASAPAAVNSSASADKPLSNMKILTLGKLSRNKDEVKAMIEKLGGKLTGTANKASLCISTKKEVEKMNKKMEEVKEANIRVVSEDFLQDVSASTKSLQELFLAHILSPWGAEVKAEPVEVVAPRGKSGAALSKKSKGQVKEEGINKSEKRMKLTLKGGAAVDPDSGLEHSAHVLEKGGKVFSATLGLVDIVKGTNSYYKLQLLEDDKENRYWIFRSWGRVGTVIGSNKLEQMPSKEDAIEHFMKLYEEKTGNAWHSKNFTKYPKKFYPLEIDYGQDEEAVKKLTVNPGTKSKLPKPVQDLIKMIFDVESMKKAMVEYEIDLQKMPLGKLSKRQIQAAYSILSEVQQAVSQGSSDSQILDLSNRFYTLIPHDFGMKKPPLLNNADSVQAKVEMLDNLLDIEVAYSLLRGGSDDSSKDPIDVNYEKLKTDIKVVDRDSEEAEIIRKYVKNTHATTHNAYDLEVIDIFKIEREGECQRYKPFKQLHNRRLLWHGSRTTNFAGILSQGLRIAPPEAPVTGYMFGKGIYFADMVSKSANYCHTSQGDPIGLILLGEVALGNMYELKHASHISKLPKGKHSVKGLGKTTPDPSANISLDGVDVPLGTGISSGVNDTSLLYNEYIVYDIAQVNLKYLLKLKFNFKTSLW

| Ki [nM] | Structure (SMILES) |
| --- | --- |
| 5 | O=C(OCc1ccccc1)N1CCN(C(=O)c2cc(Cc3n[nH]c(=O)c4c3CCCC4)ccc2F)CC1 [Example 543, benzyl 4-{2-fluoro-5-[(4-oxo-3,4,5,6,7,8-hexahydrophthalazin-1-yl)methyl]benzoyl}piperazine-1-carboxylate] |

Same assay, conditions: read-out: PARP-1 (Ki); Table 1; text calls the values EC50s

| Structure (SMILES) | Ki [nM] |
| --- | --- |
| O=C(c1cc(Cc2n[nH]c(=O)c3c2CCCC3)ccc1F)N1CCN(c2ccc(F)cc2F)CC1 [Example 524, 4-(3-{[4-(2,4-difluorophenyl)piperazin-1-yl]carbonyl}-4-fluorobenzyl)-5,6,7,8-tetrahydrophthalazin-1(2H)-one] | 5 |
| O=C(c1cc(Cc2n[nH]c(=O)c3c2NCCC3)ccc1F)N1CCN(C(=O)N2CCCCC2)CC1 [Example 526, 8-(4-fluoro-3-{[4-(piperidin-1-ylcarbonyl)piperazin-1-yl]carbonyl}benzyl)-2,3,4,6-tetrahydropyrido[2,3-d]pyridazin-5(1H)-one] | 4 |
| O=C(c1cc(Cc2n[nH]c(=O)c3c2CCCC3)ccc1F)N1CCN(c2cccc(F)c2)CC1 [Example 527, 4-(4-fluoro-3-{[4-(3-fluorophenyl)piperazin-1-yl]carbonyl}benzyl)-5,6,7,8-tetrahydrophthalazin-1(2H)-one] | 3 |
| O=C(c1cc(Cc2n[nH]c(=O)c3c2CCCC3)ccc1F)N1CCN(c2ccc(F)cc2)CC1 [Example 528, 4-(4-fluoro-3-{[4-(4-fluorophenyl)piperazin-1-yl]carbonyl}benzyl)-5,6,7,8-tetrahydrophthalazin-1(2H)-one] | 4 |
| O=C(c1cc(Cc2n[nH]c(=O)c3c2CCCC3)ccc1F)N1CCN(c2ccccn2)CC1 [Example 529, 4-{4-fluoro-3-[(4-pyridin-2-ylpiperazin-1-yl)carbonyl]benzyl}-5,6,7,8-tetrahydrophthalazin-1(2H)-one] | 2 |
| O=C(CN1CCN(C(=O)c2cc(Cc3n[nH]c(=O)c4c3NCCC4)ccc2F)CC1)N1CCCC1 [Example 532, 8-(4-fluoro-3-{[4-(2-oxo-2-pyrrolidin-1-ylethyl)piperazin-1-yl]carbonyl}benzyl)-2,3,4,6-tetrahydropyrido[2,3-d]pyridazin-5(1H)-one] | 4 |
| NC(=O)C1CCN(C(=O)c2cc(Cc3n[nH]c(=O)c4c3NCCC4)ccc2F)CC1 [Example 534, 1-{2-fluoro-5-[(5-oxo-1,2,3,4,5,6-hexahydropyrido[2,3-d]pyridazin-8-yl)methyl]benzoyl}piperidine-4-carboxamide] | 2 |
| O=C(c1cc(Cc2n[nH]c(=O)c3c2NCCC3)ccc1F)N1CCN(CCO)CC1 [Example 535, 8-(4-fluoro-3-{[4-(2-hydroxyethyl)piperazin-1-yl]carbonyl}benzyl)-2,3,4,6-tetrahydropyrido[2,3-d]pyridazin-5(1H)-one] | 4 |
| O=C(CN1CCN(C(=O)c2cc(Cc3n[nH]c(=O)c4c3CCCC4)ccc2F)CC1)N1CCCC1 [Example 537, 4-(4-fluoro-3-{[4-(2-oxo-2-pyrrolidin-1-ylethyl)piperazin-1-yl]carbonyl}benzyl)-5,6,7,8-tetrahydrophthalazin-1(2H)-one] | 2.5 |
| CC(C)NC(=O)Nc1cc(Cc2n[nH]c(=O)c3c2CCCC3)ccc1F [Example 538, N-{2-fluoro-5-[(4-oxo-3,4,5,6,7,8-hexahydrophthalazin-1-yl)methyl]phenyl}-N′-isopropylurea] | 374 |
| CCCNC(=O)Nc1cc(Cc2n[nH]c(=O)c3c2CCCC3)ccc1F [Example 539, N-{2-fluoro-5-[(4-oxo-3,4,5,6,7,8-hexahydrophthalazin-1-yl)methyl]phenyl}-N′-propylurea] | 191 |
| O=C(Nc1cc(Cc2n[nH]c(=O)c3c2CCCC3)ccc1F)NC1CCCC1 [Example 540, N-cyclopentyl-N′-{2-fluoro-5-[(4-oxo-3,4,5,6,7,8-hexahydrophthalazin-1-yl)methyl]phenyl}urea] | 204 |
| O=C(Nc1ccc(F)cc1F)Nc1cc(Cc2n[nH]c(=O)c3c2CCCC3)ccc1F [Example 541, N-(2,4-difluorophenyl)-N′-{2-fluoro-5-[(4-oxo-3,4,5,6,7,8-hexahydrophthalazin-1-yl)methyl]phenyl}urea] | 71 |
| CC(C)(C)NC(=O)Nc1cc(Cc2n[nH]c(=O)c3c2CCCC3)ccc1F [Example 542, N-(tert-butyl)-N′-{2-fluoro-5-[(4-oxo-3,4,5,6,7,8-hexahydrophthalazin-1-yl)methyl]phenyl}urea] | 548 |
| O=C(OCc1ccccc1)N1CCCN(C(=O)c2cc(Cc3n[nH]c(=O)c4c3CCCC4)ccc2F)CC1 [Example 544, benzyl 4-{2-fluoro-5-[(4-oxo-3,4,5,6,7,8-hexahydrophthalazin-1-yl)methyl]benzoyl}-1,4-diazepane-1-carboxylate] | 4 |
| O=C(c1cc(Cc2n[nH]c(=O)c3c2NCCC3)ccc1F)N1CCN(c2cccc(F)c2)CC1 [Example 547, 8-(4-fluoro-3-{[4-(3-fluorophenyl)piperazin-1-yl]carbonyl}benzyl)-2,3,4,6-tetrahydropyrido[2,3-d]pyridazin-5(1H)-one] | 2.3 |
| O=C(c1cc(Cc2n[nH]c(=O)c3c2NCCC3)ccc1F)N1CCN(c2ccc(F)cc2)CC1 [Example 548, 8-(4-fluoro-3-{[4-(4-fluorophenyl)piperazin-1-yl]carbonyl}benzyl)-2,3,4,6-tetrahydropyrido[2,3-d]pyridazin-5(1H)-one] | 2 |
| O=C(c1cc(Cc2n[nH]c(=O)c3c2NCCC3)ccc1F)N1CCN(c2ccccc2Cl)CC1 [Example 554, 8-(3-{[4-(2-chlorophenyl)piperazin-1-yl]carbonyl}-4-fluorobenzyl)-2,3,4,6-tetrahydropyrido[2,3-d]pyridazin-5(1H)-one] | 2.1 |
| CN(C)C(=O)CN1CCN(C(=O)c2cc(Cc3n[nH]c(=O)c4c3NCCC4)ccc2F)CC1 [Example 560, 2-(4-{2-fluoro-5-[(5-oxo-1,2,3,4,5,6-hexahydropyrido[2,3-d]pyridazin-8-yl)methyl]benzoyl}piperazin-1-yl)-N,N-dimethylacetamide] | 2 |
| O=C(c1cc(Cc2n[nH]c(=O)c3c2NCCC3)ccc1F)N1CCN(CCOc2ccccc2)CC1 [Example 561, 8-(4-fluoro-3-{[4-(2-phenoxyethyl)piperazin-1-yl]carbonyl}benzyl)-2,3,4,6-tetrahydropyrido[2,3-d]pyridazin-5(1H)-one] | 3 |
| O=C(c1cc(Cc2n[nH]c(=O)c3c2NCCC3)ccc1F)N1CCN(CCN2CCOCC2)CC1 [Example 566, 8-(4-fluoro-3-{[4-(2-morpholin-4-ylethyl)piperazin-1-yl]carbonyl}benzyl)-2,3,4,6-tetrahydropyrido[2,3-d]pyridazin-5(1H)-one] | 4 |

The remaining lines, values ahead:

| Ki [nM] | Structure (SMILES) |
| --- | --- |
| 2 | CCN(CC)C(=O)N1CCN(C(=O)c2cc(Cc3n[nH]c(=O)c4c3CCCC4)ccc2F)CC1 [Example 530, N,N-diethyl-4-{2-fluoro-5-[(4-oxo-3,4,5,6,7,8-hexahydrophthalazin-1-yl)methyl]benzoyl}piperazine-1-carboxamide] |
| 2 | CC(C)N1CCN(C(=O)c2cc(Cc3n[nH]c(=O)c4c3CCCC4)ccc2F)CC1 [Example 531, 4-{4-fluoro-3-[(4-isopropylpiperazin-1-yl)carbonyl]benzyl}-5,6,7,8-tetrahydrophthalazin-1(2H)-one] |
| 2 | O=C(c1cc(Cc2n[nH]c(=O)c3c2CCCC3)ccc1F)N1CCN(C(=O)N2CCOCC2)CC1 [Example 533, 4-(4-fluoro-3-{[4-(morpholin-4-ylcarbonyl)piperazin-1-yl]carbonyl}benzyl)-5,6,7,8-tetrahydrophthalazin-1(2H)-one] |
| 1.6 | O=C(c1ccccc1)N1CCN(C(=O)c2cc(Cc3n[nH]c(=O)c4c3CCCC4)ccc2F)CC1 [Example 525, 4-{3-[(4-benzoylpiperazin-1-yl)carbonyl]-4-fluorobenzyl}-5,6,7,8-tetrahydrophthalazin-1(2H)-one] |
| 1.4 | CC(C)C(=O)N1CCN(C(=O)c2cc(Cc3n[nH]c(=O)c4c3NCCC4)ccc2F)CC1 [Example 565, 8-{4-fluoro-3-[(4-isobutyrylpiperazin-1-yl)carbonyl]benzyl}-2,3,4,6-tetrahydropyrido[2,3-d]pyridazin-5(1H)-one] |
| 1.2 | O=C(c1cc(Cc2n[nH]c(=O)c3c2NCCC3)ccc1F)N1CCN(C(=O)C2CCCO2)CC1 (stereo not drawn) [Example 569, 8-(4-fluoro-3-{[4-(tetrahydrofuran-2-ylcarbonyl)piperazin-1-yl]carbonyl}benzyl)-2,3,4,6-tetrahydropyrido[2,3-d]pyridazin-5(1H)-one] |
| 1.1 | CCN(CC)C(=O)N1CCN(C(=O)c2cc(Cc3n[nH]c(=O)c4c3NCCC4)ccc2F)CC1 [Example 557, N,N-diethyl-4-{2-fluoro-5-[(5-oxo-1,2,3,4,5,6-hexahydropyrido[2,3-d]pyridazin-8-yl)methyl]benzoyl}piperazine-1-carboxamide] |
| 1.1 | O=C(c1cc(Cc2n[nH]c(=O)c3c2NCCC3)ccc1F)N1CCN(C(=O)C2CCCCC2)CC1 [Example 568, 8-(3-{[4-(cyclohexylcarbonyl)piperazin-1-yl]carbonyl}-4-fluorobenzyl)-2,3,4,6-tetrahydropyrido[2,3-d]pyridazin-5(1H)-one] |
| 1 | O=C(c1cc(Cc2n[nH]c(=O)c3c2NCCC3)ccc1F)N1CCN(c2ccccc2F)CC1 [Example 549, 8-(4-fluoro-3-{[4-(2-fluorophenyl)piperazin-1-yl]carbonyl}benzyl)-2,3,4,6-tetrahydropyrido[2,3-d]pyridazin-5(1H)-one] |
| 0.9 | O=C(c1cc(Cc2n[nH]c(=O)c3c2NCCC3)ccc1F)N1CCN(S(=O)(=O)c2ccccc2)CC1 [Example 562, 8-(4-fluoro-3-{[4-(phenylsulfonyl)piperazin-1-yl]carbonyl}benzyl)-2,3,4,6-tetrahydropyrido[2,3-d]pyridazin-5(1H)-one] |
| 0.8 | O=C(c1ccco1)N1CCN(C(=O)c2cc(Cc3n[nH]c(=O)c4c3NCCC4)ccc2F)CC1 [Example 553, 8-(4-fluoro-3-{[4-(2-furoyl)piperazin-1-yl]carbonyl}benzyl)-2,3,4,6-tetrahydropyrido[2,3-d]pyridazin-5(1H)-one] |
